pIC50: −log10 of the molar value. “And” between values parts separate entries of the source, which are not always exact repeats. Equal entries are not always repeated.

The term pIC50 denotes −log10 of the IC50, conventionally taken in molar units. Lower therefore signals a high IC50.

For experiment [1], the target named is Glycogen synthase kinase-3 beta (Homo sapiens, UniProt P49841). The experiment in a line: TR-FRET Assay. The method in brief:
(§1)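 30 min preinc w/ cpd in assay buffer → kinase rxn → EDTA quench → add detection mix (40 nM SA-d2, 2 nM Tb-pSer641 Ab) → TR-FRET read.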
On the technique in general: Time-resolved FRET reads energy transfer from a long-lived donor to a nearby acceptor.

In experiment [2] the target is Glycogen synthase kinase-3 alpha (Homo sapiens, UniProt P49840). Briefly: TR-FRET Assay. The method in brief:
as §1

Sequence of Glycogen synthase kinase-3 alpha (P49840 whole entry): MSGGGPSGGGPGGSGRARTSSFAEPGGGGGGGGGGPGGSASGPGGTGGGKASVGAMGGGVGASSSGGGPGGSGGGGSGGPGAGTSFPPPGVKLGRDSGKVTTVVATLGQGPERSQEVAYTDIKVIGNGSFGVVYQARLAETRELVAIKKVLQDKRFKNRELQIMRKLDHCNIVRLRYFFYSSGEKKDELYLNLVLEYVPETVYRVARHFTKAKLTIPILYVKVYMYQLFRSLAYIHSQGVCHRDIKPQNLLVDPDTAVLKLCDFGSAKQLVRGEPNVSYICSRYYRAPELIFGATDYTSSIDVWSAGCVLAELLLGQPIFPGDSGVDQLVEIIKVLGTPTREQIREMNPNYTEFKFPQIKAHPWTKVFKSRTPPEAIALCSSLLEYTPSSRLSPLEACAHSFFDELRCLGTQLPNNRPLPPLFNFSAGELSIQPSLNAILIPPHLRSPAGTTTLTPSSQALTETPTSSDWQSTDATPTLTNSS
Sequence of Glycogen synthase kinase-3 beta (P49841 whole entry): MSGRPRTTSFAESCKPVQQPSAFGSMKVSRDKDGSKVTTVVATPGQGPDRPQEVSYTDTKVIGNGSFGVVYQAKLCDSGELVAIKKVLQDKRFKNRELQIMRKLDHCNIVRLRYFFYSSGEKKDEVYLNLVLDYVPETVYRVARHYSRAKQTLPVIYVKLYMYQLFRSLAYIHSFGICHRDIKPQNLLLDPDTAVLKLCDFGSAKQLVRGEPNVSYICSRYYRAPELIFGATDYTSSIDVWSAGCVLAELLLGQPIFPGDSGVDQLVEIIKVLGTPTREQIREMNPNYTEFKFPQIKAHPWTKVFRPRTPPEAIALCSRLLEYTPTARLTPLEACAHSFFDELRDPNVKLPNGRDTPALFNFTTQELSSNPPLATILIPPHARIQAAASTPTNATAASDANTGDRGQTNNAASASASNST

With `CC[C@@]1(c2cccc(-c3ccncc3C)c2)C2=CN=NC2NC2=C1C(=O)CC(C)(C)C2` (some centres not stated) [US20250313563, Compound 913047], the pIC50 is > 7.00 and 6.00 to 7.00 in experiment [1]; greater than 7.00 in experiment [2].

Consider `CC1(C)CC(=O)C2=C(C1)NC1=C(CN=N1)[C@]2(C)c1cc(C(F)(F)F)ccc1F` [US20250313563, Compound 816798], for which the pIC50 was 6.00 to 7.00 in experiment [1] and greater than 7.00 in experiment [2].

On to `CCC1(c2cccc(CNC)c2)C2=CN=NC2NC2=C1C(=O)CC(C)(C)C2` (configuration not stated) [US20250313563, Compound 826651], for which the figures for the pIC50 in experiment [1] and in experiment [2] were less than 5.30 and 5.30 to 6.00, respectively.

Regarding `Cn1ccc(S(=O)(=O)N2CCC3(CC2)C2=C(N=NC2)NC2=C3C(=O)CC(C)(C)[C@H]2F)n1` [US20250313563, Compound 951709], the pIC50 was 6.00 to 7.00 in experiment [1] and greater than 7.00 in experiment [2].

`CC1(C)CC(=O)C2=C(C1)NC1=C(CN=N1)C21COC2(CN(C(=O)c3cccc(F)c3)C2)C1` (configuration not stated) [US20250313563, Compound 947283]: the pIC50 in experiment [1] and in experiment [2] was greater than 7.00 throughout.

`CC[C@@]1(c2cccc(C3CC3)c2)C2=CN=NC2NC2=C1C(=O)NC(C)(C)C2` (some centres not stated) [US20250313563, Compound 950817]: the negative-log IC50 (pIC50) in experiment [1] and in experiment [2] was less than 5.30 throughout.

With `CC[C@]1(c2cccc(-c3ccncc3C(F)(F)F)c2)C2=C(N=NC2)NC2=C1C(=O)C(C)(C)C2` [US20250313563, Compound 952759], the pIC50 in experiment [1] is > 7.00 and 5.30 to 6.00; in experiment [2], > 7.00 and 6.00 to 7.00.

`CC1(C)CC(=O)C2=C(C1)NC1=C(CN=N1)[C@]21C[C@@H](n2cccn2)C1` [US20250313563, Compound 884004]: the pIC50 in experiment [1] and in experiment [2] was greater than 7.00 in each case.

Regarding `CC1(C)CC(=O)C2=C(C1)NC1=C(CN=N1)C21CN(S(=O)(=O)Cc2ccccc2)C1` [US20250313563, Compound 943543], the pIC50 in experiment [1] and in experiment [2] was greater than 7.00 throughout.

Take `CC[C@]1(c2cccc(-c3ccncc3C)c2)C2=CN=NC2NC2=C1C(=O)N[C@]1(CCOC1)C2` (some centres not stated) [US20250313563, Compound 948640]: the pIC50 in experiment [1] and in experiment [2] was greater than 7.00 in each case.

Regarding `CC[C@]1(c2cccc(S(=O)(=O)C3CC3)c2)C2=CN=NC2NC2=C1C(=O)N(C)C(C)(C)C2` (some centres not stated) [US20250313563, Compound 949184], the pIC50 was less than 5.30 in experiment [1] and 5.30 to 6.00 in experiment [2].

As for `CC[C@@]1(c2cccc(C(F)(F)F)c2)C2=CN=NC2NC2=C1C(=O)N(C)CC2` (some centres not stated) [US20250313563, Compound 917283], the pIC50 in experiment [1] and in experiment [2] was less than 5.30 throughout.

Regarding `CC1N=NC2=C1C1(CCOCC1)C1=C(CC(C)(C)C(F)C1=O)N2` (configuration not stated) [US20250313563, Compound 912072], the negative-log IC50 (pIC50) in experiment [1] and in experiment [2] was 6.00 to 7.00 each time.

Consider `CC[C@]1(c2cccc(-c3ncnn3C)c2)C2=CN=NC2NC2=C1C(=O)CC(C)(C)C2` (some centres not stated) [US20250313563, Compound 945472], for which the pIC50 is 6.00 to 7.00 in experiment [1] and greater than 7.00 in experiment [2].

As to `CC[C@@]1(c2cccc(-c3ccncc3F)c2)C2=C(CC(C)(C)CC2=O)NC2N=NC(C)=C21` (some centres not stated) [US20250313563, Compound 913017], the pIC50 in experiment [1] and in experiment [2] was 6.00 to 7.00 throughout.

Take `CCC1(c2cccc(-c3ccnc(N(C)C)c3)c2)C2=C(CC(C)(C)CC2=O)NC2N=NC(C)=C21` (configuration not stated) [US20250313563, Compound 883990]: the pIC50 in experiment [1] is 6.00 to 7.00; in experiment [2], greater than 7.00.

Take `CC1(C)CC(=O)C2=C(C1)NC1=C(CN=N1)C21CCN(S(=O)(=O)c2cnn3ccccc23)CC1` [US20250313563, Compound 947615]: the pIC50 in experiment [1] and in experiment [2] was greater than 7.00 throughout.

Turning to `CC[C@]1(c2cccc(C(F)(F)F)c2)C2=C(N=NC2)NC2=C1C(=O)N(c1ccccc1)C2` [US20250313563, Compound 945376], the pIC50 in experiment [1] and in experiment [2] was less than 5.30 in each case.

`CCC1(c2cccc(-c3cc(C)ncc3F)c2)C2=CN=NC2NC2=C1C(=O)NC(C)(C)C2` (configuration not stated) [US20250313563, Compound 947401]: the negative logarithm of the IC50 (pIC50) in experiment [1] is 6.00 to 7.00 and < 5.30; in experiment [2], > 7.00 and 6.00 to 7.00.

For `CC1(C)CC(=O)C2=C(C1)NC1=C(CN=N1)C21CCN(S(=O)(=O)c2cccc(C(F)F)c2)CC1` [US20250313563, Compound 947264], the pIC50 is > 7.00 and 6.00 to 7.00 in experiment [1]; greater than 7.00 in experiment [2].

Take `CC(=O)N1CC[C@@]2(C1)C1=C(N=NC1)NC1=C2C(=O)CC(C)(C)C1` [US20250313563, Compound 889584]: the pIC50 in experiment [1] was 5.30 to 6.00; in experiment [2], 6.00 to 7.00.

Take `CC1(C)CC(=O)C2=C(C1)NC1=C(CN=N1)C21CCN(S(=O)(=O)c2cccc(F)c2)CC1` [US20250313563, Compound 901466]: the pIC50 in experiment [1] and in experiment [2] was greater than 7.00 each time.

Regarding `CC[C@@]1(c2cccc(-c3cc[n+](O)cc3[S@@+](C)[O-])c2)C2=CN=NC2NC2=C1C(=O)CC(C)(C)C2` (some centres not stated) [US20250313563, Compound 947571], the pIC50 in experiment [1] was 5.30 to 6.00; in experiment [2], 6.00 to 7.00.

For the molecule `CC1(C)CC(=O)C2=C(C1)NC1=C(CN=N1)C21CN(CCc2ccccc2)C1` [US20250313563, Compound 929441], the negative logarithm of the IC50 (pIC50) in experiment [1] and in experiment [2] was less than 5.30 in each case.

Consider `CC[C@@]1(c2cccc(-c3cnn4c3CCCC4)c2)C2=CN=NC2NC2=C1C(=O)NC(C)(C)C2` (some centres not stated) [US20250313563, Compound 947410], for which the pIC50 was 6.00 to 7.00 and < 5.30 in experiment [1]; > 7.00 and 6.00 to 7.00 in experiment [2].

`CC[C@]1(c2cccc(-c3cn(C)nc3C)c2)C2=CN=NC2NC2=C1C(=O)NC1(CCCC1)C2` (some centres not stated) [US20250313563, Compound 950252]: the pIC50 in experiment [1] is > 7.00 and 5.30 to 6.00; in experiment [2], greater than 7.00.

Regarding `CC(=O)N1C[C@@]2(C[C@]3(CO2)C2=C(N=NC2)NC2=C3C(=O)CC(C)(C)C2)[C@@H]1C` [US20250313563, Compound 948440], the pIC50 in experiment [1] and in experiment [2] was greater than 7.00 in each case.

`CC[C@]1(c2cccc(-c3cnn(C)c3C)c2)C2=C(CC(C)(C)NC2=O)NC2N=NC(C(F)(F)F)=C21` (some centres not stated) [US20250313563, Compound 947807]: the pIC50 in experiment [1] was 6.00 to 7.00; in experiment [2] it was greater than 7.00.

Take `C[C@@H]1C[C@@H]2C[C@@]3(C[C@@H]2C1)C1=CN=NC1NC1=C3C(=O)CC(C)(C)C1` (some centres not stated) [US20250313563, Compound 943898]: the pIC50 in experiment [1] and in experiment [2] was greater than 7.00 throughout.

Take `CC[C@@]1(c2cccc(N(C)C(=O)c3cnn(C)c3)c2)C2=CN=NC2NC2=C1C(=O)CC(C)(C)C2` (some centres not stated) [US20250313563, Compound 913310]: the pIC50 in experiment [1] and in experiment [2] was greater than 7.00 throughout.

Regarding `CC(C)C1CC(C(=O)N2CC3(C2)CC2(CO3)C3=C(N=NC3)NC3=C2C(=O)CC(C)(C)C3)C1` (configuration not stated) [US20250313563, Compound 947273], the negative logarithm of the IC50 (pIC50) in experiment [1] and in experiment [2] was greater than 7.00 throughout.

Regarding `CC[C@]1(c2cccc(S(C)(=O)=O)c2)C2=C(CC(C)(C)NC2=O)NC2N=NC(C(F)(F)F)=C21` (some centres not stated) [US20250313563, Compound 948418], the pIC50 in experiment [1] and in experiment [2] was greater than 7.00 throughout.

Regarding `CC[C@]1(c2cccc(-c3cc(C)ncc3C)c2)C2=C(CC(C)(C)CC2=O)NC2N=NC(C)=C21` (some centres not stated) [US20250313563, Compound 913050], the pIC50 in experiment [1] is > 7.00 and 6.00 to 7.00; in experiment [2], greater than 7.00.

As for `CC1(C)CC(=O)C2=C(C1)NC1=C(CN=N1)C21COC2(CN(C(=O)C3(C)CC(F)C3)C2)C1` (configuration not stated) [US20250313563, Compound 947271], the results for the pIC50 in experiment [1] and in experiment [2] were 6.00 to 7.00 and greater than 7.00, respectively.

In the case of `CCC1(c2cccc(-c3ccncc3O)c2)C2=C(CC(C)(C)CC2=O)NC2N=NC(C)=C21` (configuration not stated) [US20250313563, Compound 944024], the pIC50 in experiment [1] and in experiment [2] was greater than 7.00 each time.

Consider `CC[C@@]1(c2cccc(N(C)c3ccnc(F)c3)c2)C2=CN=NC2NC2=C1C(=O)CC(C)(C)C2` (some centres not stated) [US20250313563, Compound 929453], for which the negative logarithm of the IC50 (pIC50) in experiment [1] was less than 5.30; in experiment [2] it was 5.30 to 6.00.

For `CC[C@]1(c2cccc(S(=O)(=O)C3CC3)c2)C2=CN=NC2NC2=C1C(=O)NC(C)(C)C2` (some centres not stated) [US20250313563, Compound 947803], the pIC50 in experiment [1] and in experiment [2] was greater than 7.00 throughout.

`CCCn1nccc1-c1cccc(C2(CC)C3=CN=NC3NC3=C2C(=O)CC(C)(C)C3)c1` (configuration not stated) [US20250313563, Compound 929400]: the pIC50 in experiment [1] and in experiment [2] was greater than 7.00 throughout.

Consider `CC[C@@]1(c2cccc(-c3ccnc(C)c3)c2)C2=C(N=NC2)NC2=C1C(=O)[C@H]1CC[C@@H]2C1` [US20250313563, Compound 943916], for which the pIC50 in experiment [1] was 6.00 to 7.00; in experiment [2], greater than 7.00.

On to `CC[C@@]1(c2cccc([C@H](C)c3ncccn3)c2)C2=CN=NC2NC2=C1C(=O)CC(C)(C)C2` (some centres not stated) [US20250313563, Compound 948060], for which the pIC50 was > 7.00 and 5.30 to 6.00 in experiment [1]; > 7.00 and 6.00 to 7.00 in experiment [2].

Turning to `CC[C@@]1(c2cccc(N(C)c3ncccn3)c2)C2=CN=NC2NC2=C1C(=O)NC(C)(C)C2` (some centres not stated) [US20250313563, Compound 949179], the negative logarithm of the IC50 (pIC50) in experiment [1] was less than 5.30; in experiment [2], 6.00 to 7.00.

Turning to `CC1(C)CC(=O)C2=C(NC3=C(CN=N3)C23CCN(S(=O)(=O)C2CC2)CC3)C1F` (configuration not stated) [US20250313563, Compound 950814], the pIC50 in experiment [1] and in experiment [2] was greater than 7.00 each time.

Consider `CCC1(c2cccc(-c3cnn4c3CCCC4)c2)C2=C(CC(C)(C)NC2=O)NC2N=NC(C)=C21` (configuration not stated) [US20250313563, Compound 945993], for which the results for the negative logarithm of the IC50 (pIC50) in experiment [1] and in experiment [2] were 6.00 to 7.00 and greater than 7.00, respectively.

As to `CC1(C)CC(=O)C2=C(C1)NC1=C(CN=N1)C21CSC1` [US20250313563, Compound 889567], the pIC50 is 6.00 to 7.00 in experiment [1] and greater than 7.00 in experiment [2].

Turning to `CC[C@@]1(c2cccc(C(F)(F)F)c2)C2=CN=NC2NC2=C1C(=O)N(CCOC)CC2` (some centres not stated) [US20250313563, Compound 949600], the pIC50 in experiment [1] and in experiment [2] was less than 5.30 each time.

Turning to `CC[C@]1(c2cccc(C(F)(F)F)c2)C2=CN=NC2NC2=C1C(=O)CC(C)(C)C2` (some centres not stated) [US20250313563, Compound 790754], the pIC50 in experiment [1] was 5.30 to 6.00; in experiment [2], 6.00 to 7.00.

Source of the values: BindingDB's records for patent US20250313563 (The Broad Institute, 2025).
